# Reference: article PMC5080985 (Journal of medicinal chemistry, 2015)
# Experiments:
# AmpC β-lactamase = AmpC β-lactamase (Escherichia coli, UniProt P00811); test: Controls for colloidal aggregation; details: AmpC β-lactamase counterscreen, particle formation by DLS
# FIH = FIH (Homo sapiens, UniProt Q9NWT6); test: MALDI counterscreen, FIH; format: biochemical
# KDM5B (JARID1B, PLU-1) = KDM5B (JARID1B, PLU-1) (Homo sapiens, UniProt Q9UGL1); test: AlphaScreen counterscreen, KDM5B; format: biochemical
# KDM4C [1] = target: T1, KDM4C (Homo sapiens, UniProt Q9H3R0); test: KDM4C time-resolved FRET; format: biochemical
# T1 sequence (Q9H3R0 1-352): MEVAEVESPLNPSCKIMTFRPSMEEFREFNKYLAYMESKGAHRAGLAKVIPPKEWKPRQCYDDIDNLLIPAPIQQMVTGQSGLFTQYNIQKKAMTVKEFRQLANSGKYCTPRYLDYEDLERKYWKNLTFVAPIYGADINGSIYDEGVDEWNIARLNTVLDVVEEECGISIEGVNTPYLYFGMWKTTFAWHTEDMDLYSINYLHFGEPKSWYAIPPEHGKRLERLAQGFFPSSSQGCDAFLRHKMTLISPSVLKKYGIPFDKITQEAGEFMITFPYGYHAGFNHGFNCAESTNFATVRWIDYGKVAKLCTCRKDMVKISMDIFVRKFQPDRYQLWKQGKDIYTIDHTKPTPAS
# KDM6B (JMJD3) = KDM6B (JMJD3) (Homo sapiens, UniProt O15054); test: AlphaScreen counterscreen, KDM6B; format: biochemical
# KDM2A (FBXL11) = target: T2, KDM2A (FBXL11) (Homo sapiens, UniProt Q9Y2K7); test: AlphaScreen counterscreen, KDM2A; format: biochemical
# T2 sequence (Q9Y2K7 1-1162): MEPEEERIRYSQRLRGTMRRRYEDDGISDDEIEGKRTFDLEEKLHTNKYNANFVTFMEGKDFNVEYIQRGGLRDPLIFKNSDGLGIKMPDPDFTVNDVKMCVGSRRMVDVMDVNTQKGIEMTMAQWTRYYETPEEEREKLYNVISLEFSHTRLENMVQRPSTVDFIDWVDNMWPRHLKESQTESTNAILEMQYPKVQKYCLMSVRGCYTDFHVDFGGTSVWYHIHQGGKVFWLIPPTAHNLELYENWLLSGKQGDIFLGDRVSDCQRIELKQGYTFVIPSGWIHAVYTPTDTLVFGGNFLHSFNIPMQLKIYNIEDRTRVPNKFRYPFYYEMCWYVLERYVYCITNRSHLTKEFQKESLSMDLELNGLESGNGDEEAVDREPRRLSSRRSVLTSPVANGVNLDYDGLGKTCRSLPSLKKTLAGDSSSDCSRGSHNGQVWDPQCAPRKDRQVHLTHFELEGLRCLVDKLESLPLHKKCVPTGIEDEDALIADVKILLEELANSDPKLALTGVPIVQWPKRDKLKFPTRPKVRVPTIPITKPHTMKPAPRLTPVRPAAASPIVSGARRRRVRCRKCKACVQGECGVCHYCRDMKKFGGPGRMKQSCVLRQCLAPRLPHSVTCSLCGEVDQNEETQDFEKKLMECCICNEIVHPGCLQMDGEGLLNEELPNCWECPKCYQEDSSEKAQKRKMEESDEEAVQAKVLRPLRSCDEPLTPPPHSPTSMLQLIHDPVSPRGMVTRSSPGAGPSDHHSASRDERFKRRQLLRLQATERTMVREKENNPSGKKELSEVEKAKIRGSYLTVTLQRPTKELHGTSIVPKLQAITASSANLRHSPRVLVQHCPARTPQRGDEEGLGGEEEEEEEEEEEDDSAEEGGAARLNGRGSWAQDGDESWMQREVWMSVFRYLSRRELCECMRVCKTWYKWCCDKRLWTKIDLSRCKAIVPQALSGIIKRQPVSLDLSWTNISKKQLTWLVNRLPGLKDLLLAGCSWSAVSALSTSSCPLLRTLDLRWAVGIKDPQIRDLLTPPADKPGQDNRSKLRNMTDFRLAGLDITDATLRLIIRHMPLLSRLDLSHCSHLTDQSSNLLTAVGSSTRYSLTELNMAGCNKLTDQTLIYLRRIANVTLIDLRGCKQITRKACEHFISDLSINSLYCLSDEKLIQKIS
# KDM4C [2] = target: T3, KDM4C (Homo sapiens, UniProt Q9H3R0); test: Thermal shift assay; format: binding
# T3 sequence (Q9H3R0 1-1056): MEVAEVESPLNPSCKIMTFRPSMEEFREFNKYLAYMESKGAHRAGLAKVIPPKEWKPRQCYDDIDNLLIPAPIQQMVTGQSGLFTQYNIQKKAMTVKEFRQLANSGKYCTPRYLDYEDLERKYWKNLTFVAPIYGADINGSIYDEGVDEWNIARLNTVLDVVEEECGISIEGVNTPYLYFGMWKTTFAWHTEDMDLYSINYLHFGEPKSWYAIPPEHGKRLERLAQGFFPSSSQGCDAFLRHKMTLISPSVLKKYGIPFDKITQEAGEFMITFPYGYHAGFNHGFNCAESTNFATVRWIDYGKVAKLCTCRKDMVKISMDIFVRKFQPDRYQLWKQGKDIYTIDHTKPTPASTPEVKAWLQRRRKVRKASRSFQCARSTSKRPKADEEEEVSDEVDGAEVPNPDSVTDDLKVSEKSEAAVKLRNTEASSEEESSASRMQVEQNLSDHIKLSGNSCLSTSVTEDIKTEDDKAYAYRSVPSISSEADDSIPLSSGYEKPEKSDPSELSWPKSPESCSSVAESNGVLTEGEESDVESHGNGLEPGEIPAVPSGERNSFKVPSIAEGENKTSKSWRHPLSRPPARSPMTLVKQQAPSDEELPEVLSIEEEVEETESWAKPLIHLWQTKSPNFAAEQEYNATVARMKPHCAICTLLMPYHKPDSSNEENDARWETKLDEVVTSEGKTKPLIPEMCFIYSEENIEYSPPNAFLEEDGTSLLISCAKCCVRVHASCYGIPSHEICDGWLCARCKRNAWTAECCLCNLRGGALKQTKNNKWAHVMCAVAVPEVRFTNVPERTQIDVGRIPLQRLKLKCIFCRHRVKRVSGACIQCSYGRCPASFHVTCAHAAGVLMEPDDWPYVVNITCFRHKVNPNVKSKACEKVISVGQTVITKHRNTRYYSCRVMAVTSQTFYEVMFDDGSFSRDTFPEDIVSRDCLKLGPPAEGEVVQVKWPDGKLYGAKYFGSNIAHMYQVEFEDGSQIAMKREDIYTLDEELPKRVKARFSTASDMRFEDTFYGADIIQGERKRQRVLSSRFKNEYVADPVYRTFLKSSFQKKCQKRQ
# KDM4C [3] = target: T3, KDM4C; test: MALDI assay, KDM4C; format: biochemical
# Chain of AmpC β-lactamase (P00811 20-377): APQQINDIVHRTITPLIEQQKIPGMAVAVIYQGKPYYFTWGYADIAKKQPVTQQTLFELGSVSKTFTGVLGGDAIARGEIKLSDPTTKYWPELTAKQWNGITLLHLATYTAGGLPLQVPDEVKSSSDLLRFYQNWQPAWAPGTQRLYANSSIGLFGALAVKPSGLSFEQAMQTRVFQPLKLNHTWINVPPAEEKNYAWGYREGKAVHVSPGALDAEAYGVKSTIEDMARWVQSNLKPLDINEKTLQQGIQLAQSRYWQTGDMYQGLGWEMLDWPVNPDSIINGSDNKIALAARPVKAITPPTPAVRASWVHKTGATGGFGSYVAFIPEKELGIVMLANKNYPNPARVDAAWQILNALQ
# Chain of FIH (Q9NWT6 whole entry): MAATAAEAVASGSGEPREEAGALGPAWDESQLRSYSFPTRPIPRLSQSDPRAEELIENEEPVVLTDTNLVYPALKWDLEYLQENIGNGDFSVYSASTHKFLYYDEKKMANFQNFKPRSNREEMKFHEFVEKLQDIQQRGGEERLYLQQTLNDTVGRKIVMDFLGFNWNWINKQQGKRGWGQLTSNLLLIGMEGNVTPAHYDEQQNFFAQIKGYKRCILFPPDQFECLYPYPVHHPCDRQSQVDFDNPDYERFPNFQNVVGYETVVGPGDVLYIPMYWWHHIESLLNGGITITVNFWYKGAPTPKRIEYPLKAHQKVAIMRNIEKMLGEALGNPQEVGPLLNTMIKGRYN
# Chain of KDM5B (JARID1B, PLU-1) (Q9UGL1 whole entry, species assumed): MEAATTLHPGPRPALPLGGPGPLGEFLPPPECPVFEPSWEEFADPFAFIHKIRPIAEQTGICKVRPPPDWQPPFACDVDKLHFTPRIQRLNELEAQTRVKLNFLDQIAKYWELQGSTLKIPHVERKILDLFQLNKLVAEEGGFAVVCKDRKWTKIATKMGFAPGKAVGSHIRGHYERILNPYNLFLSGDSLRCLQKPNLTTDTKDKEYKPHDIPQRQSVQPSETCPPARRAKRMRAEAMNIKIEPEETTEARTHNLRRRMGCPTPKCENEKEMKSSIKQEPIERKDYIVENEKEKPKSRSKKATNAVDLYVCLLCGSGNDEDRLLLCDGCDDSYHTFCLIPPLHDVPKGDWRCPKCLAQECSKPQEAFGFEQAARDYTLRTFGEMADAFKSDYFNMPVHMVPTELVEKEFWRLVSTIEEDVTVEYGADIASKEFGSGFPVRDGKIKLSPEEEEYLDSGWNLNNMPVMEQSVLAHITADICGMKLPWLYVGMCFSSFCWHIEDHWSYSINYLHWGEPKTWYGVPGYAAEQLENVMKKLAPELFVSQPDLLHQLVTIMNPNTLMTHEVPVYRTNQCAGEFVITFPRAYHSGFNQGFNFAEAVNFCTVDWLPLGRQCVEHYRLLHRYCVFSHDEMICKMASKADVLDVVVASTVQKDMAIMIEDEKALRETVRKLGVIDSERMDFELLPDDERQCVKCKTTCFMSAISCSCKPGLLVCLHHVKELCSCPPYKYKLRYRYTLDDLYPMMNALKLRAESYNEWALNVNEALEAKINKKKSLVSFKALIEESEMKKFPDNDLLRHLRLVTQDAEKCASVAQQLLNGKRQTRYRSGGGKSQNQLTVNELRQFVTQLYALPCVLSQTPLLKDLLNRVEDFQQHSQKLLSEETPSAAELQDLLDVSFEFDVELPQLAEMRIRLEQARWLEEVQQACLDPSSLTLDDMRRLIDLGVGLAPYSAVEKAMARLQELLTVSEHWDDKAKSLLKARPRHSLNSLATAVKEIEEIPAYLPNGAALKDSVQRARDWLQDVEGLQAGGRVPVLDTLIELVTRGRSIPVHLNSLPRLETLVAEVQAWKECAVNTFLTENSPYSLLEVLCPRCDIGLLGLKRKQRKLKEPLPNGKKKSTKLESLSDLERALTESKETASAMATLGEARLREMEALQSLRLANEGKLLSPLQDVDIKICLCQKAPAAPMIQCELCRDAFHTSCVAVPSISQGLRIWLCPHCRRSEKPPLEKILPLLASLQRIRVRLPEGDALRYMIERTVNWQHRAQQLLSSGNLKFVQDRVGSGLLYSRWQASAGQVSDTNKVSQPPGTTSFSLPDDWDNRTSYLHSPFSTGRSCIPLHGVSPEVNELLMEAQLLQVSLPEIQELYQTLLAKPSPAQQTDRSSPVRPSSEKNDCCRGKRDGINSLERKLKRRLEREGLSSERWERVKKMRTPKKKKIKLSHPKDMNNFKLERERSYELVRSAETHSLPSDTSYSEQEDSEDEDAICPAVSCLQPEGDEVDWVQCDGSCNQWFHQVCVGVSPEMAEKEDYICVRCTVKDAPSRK
# Chain of KDM6B (JMJD3) (O15054 whole entry, species assumed): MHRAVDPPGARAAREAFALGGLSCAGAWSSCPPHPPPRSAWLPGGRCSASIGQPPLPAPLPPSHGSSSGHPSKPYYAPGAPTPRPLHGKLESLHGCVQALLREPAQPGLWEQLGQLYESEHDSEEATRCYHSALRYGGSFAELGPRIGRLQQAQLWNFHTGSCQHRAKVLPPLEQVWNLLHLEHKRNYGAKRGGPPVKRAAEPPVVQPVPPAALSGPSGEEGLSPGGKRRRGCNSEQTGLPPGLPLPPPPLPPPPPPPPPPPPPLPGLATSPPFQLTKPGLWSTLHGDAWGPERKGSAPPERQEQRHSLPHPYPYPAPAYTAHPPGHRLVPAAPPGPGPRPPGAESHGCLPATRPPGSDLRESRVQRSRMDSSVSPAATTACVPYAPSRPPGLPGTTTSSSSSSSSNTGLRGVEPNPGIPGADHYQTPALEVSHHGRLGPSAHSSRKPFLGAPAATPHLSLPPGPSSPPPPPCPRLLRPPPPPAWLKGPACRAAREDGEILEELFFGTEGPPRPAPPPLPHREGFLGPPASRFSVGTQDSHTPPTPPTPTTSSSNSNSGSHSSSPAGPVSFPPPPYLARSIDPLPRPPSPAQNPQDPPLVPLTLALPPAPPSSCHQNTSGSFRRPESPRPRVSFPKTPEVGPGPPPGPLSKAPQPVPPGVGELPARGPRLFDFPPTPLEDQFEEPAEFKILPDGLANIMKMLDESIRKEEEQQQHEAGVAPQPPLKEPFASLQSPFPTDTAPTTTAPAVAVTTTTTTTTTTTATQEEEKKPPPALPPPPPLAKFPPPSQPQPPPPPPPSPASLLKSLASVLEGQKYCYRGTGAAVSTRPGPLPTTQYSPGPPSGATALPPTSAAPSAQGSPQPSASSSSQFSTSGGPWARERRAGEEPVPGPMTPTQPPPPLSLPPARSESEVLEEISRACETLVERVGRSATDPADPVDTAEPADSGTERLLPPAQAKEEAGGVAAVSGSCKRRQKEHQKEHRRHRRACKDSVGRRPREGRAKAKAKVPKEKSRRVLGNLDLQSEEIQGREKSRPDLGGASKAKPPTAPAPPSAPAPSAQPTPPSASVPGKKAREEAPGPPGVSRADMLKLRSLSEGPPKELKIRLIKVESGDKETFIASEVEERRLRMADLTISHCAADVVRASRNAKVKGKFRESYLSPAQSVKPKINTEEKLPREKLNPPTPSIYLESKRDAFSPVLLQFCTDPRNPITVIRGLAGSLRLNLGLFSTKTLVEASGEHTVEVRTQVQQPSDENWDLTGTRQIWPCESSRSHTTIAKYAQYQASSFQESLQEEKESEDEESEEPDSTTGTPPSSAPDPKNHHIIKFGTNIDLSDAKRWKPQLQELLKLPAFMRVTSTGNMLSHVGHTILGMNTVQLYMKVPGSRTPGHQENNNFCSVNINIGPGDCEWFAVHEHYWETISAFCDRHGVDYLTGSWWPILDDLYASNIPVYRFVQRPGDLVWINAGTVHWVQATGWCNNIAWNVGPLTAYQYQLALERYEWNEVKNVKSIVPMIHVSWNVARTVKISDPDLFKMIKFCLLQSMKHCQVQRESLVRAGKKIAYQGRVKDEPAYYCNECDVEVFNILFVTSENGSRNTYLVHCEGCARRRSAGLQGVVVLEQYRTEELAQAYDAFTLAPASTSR
compound,measurement,setting,value
Cn1nccc1CNc1ccc(O)c(C(=O)O)c1 [Compound 4],nonspecific inhibition / colloidal aggregation,AmpC β-lactamase,neither of the two inhibitors acted as aggregators in a relevant concentration range
O=C(O)c1ccnc(-c2cc(NC(=O)c3ccc(O)cc3)ccc2O)c1 [Compound 35],"fold selectivity over KDM4C, FIH","FIH; MALDI, 100 μM α-KG",> 85 fold
same,"fold selectivity over KDM4C, KDM5B","KDM5B (JARID1B, PLU-1)",Ml
CC(=O)Nc1ccc(O)c(C(=O)O)c1 [N-acetyl-5-aminosalicylic acid],IC50(μM) 2μM αKG,"KDM4C [1]; KDM4C, TR-FRET, 2 μM α-KG",no inhibition
CC(=O)Nc1ccc(O)c(-c2cc(C(=O)O)ccn2)c1 [Compound 44],"fold selectivity over KDM4C, FIH","FIH; MALDI, 100 μM α-KG",> 8 fold
same,"IC50 FIH, MALDI Assays","FIH; MALDI, 100 μM α-KG, >500 = no inhibition at 500 μM inhibitor",no inhibition
same,"fold selectivity over KDM4C, KDM6B",KDM6B (JMJD3),> 6 fold
same,"fold selectivity over KDM4C, KDM2A",KDM2A (FBXL11),> 6 fold
Cc1ccccc1CNc1ccc(O)c(C(=O)O)c1 [Compound 20],stabilization of the enzyme in thermal shift assays,KDM4C [2],stabilized the enzyme in thermal shift assays
same,nonspecific inhibition / colloidal aggregation,AmpC β-lactamase,did not exhibit nonspecific inhibition
COCC(=O)Nc1ccc(O)c(-c2cc(C(=O)O)ccn2)c1 [Compound 42],"fold selectivity over KDM4C, FIH","FIH; MALDI, 100 μM α-KG",> 11 fold
same,fold improvement in potency over the parent 5-aminosalicylate fragment,"KDM4C [1]; TR-FRET IC50 at 2 μM α-KG, 42 vs 5, 21 vs 4",~700 fold
"Nc1ccc(O)c(-c2cc(C(=O)O)ccn2)c1 [Compound 30, 2-(5-Amino-2-hydroxyphenyl)-isonicotinic Acid]",IC50,FIH,828 µM
same,"fold selectivity over KDM4C, FIH","FIH; MALDI, 100 μM α-KG",6 fold
same,IC50,KDM4C [3],135 µM
COc1cccc(CC(=O)Nc2ccc(O)c(-c3cc(C(=O)O)ccn3)c2)c1 [Compound 40],"fold selectivity over KDM4C, FIH","FIH; MALDI, 100 μM α-KG",> 68 fold
COCC(=O)Nc1ccc(O)c(C(=O)O)c1 [Compound 5],nonspecific inhibition / colloidal aggregation,AmpC β-lactamase,neither of the two inhibitors acted as aggregators in a relevant concentration range
